Test results: patent US20150184144A1, “Liquid Enzyme Composition and Method for Enzyme Recovery” (Novozymes A/S, priority 2012, published 2015)

Tested on: Lactobacillus (L. buchneri and L. para paracasei)
Assay: Challenge screening of liquid enzyme formulations inoculated with Lactobacillus, viable cells (CFU)
Format: cell-based
Conditions: for CFU/ml After 1 week / CFU/ml After 2 weeks: 20-25° C.
Experimental: The antimicrobial effect may be determined by analyzing viable cells (CFU) of the liquid formulation after inoculating with Lactobacillus and incubating for 1-2 weeks at 20-25° C. and comparing with a similar liquid composition without the fatty acid or salt.
Challenge screening was performed by inoculating with 10^5-10^6 CFU/ml of Lactobacillus (L. buchneri and L. para paracasei), incubating for two weeks at 20-25° C., and analyzing viable cells (CFU) before and after inoculation and after 1 and 2 weeks.
The results are shown as CFU/ml (detection limit 100): […]

[1] = Example 5: 0.3% w/w inhibitor in glucoamylase formulation, pH 4.7
[2] = Example 5: glucoamylase (mixture of two variants) formulation, 48% w/w solids, pH 4.7, 0.3% w/w Na-octanoate or sodium benzoate instead, with or without 0.3% Na acetate trihydrate
[3] = Example 5: glucoamylase formulation, pH 4.7, 0.3% w/w Na-octanoate or sodium benzoate instead, with or without 0.3% Na acetate trihydrate
[4] = Example 1: Talaromyces glucoamylase formulation, 0.5% w/w Na-hexanoate, pH 5.0, detection limit 100

SMILES: O=C([O-])c1ccccc1.[Na+] [Benzoate, sodium benzoate, reference compound]
- antimicrobial effect against Lactobacillus (in words) [1]: not effective
- CFU/ml Before inoculation [2]: ≦100 CFU/ml
- CFU/ml After inoculation [3]: 170000 CFU/ml
- CFU/ml After 1 week [3]: 150000 CFU/ml
- CFU/ml After 2 weeks [3]: 120000 CFU/ml

SMILES: CC(=O)[O-].O.O.O.[Na+] [acetate, Na acetate trihydrate, reference compound]
- antimicrobial effect against Lactobacillus (in words) [1]: not effective

SMILES: CCCCCCCC(=O)[O-].[Na+] [Octanoate, Na-Caprylate (Na-octanoate)]
- antimicrobial effect against Lactobacillus (in words) (Example 4: 0.5% w/w Na-octanoate in glucoamylase formulation, pH 5.0, compared with formate+sorbate+propionate): strong antimicrobial (germicidal) effect
- antimicrobial effect against Lactobacillus (in words) [1]: strong antimicrobial (germicidal) effect
- CFU/ml Before inoculation [2]: ≦100 CFU/ml
- CFU/ml After inoculation [3]: 170000 CFU/ml
- CFU/ml After 1 week [3]: ≦100 CFU/ml
- CFU/ml After 2 weeks [3]: ≦100 CFU/ml

SMILES: CCCCCC(=O)[O-].[Na+] [Na-hexanoate]
- antimicrobial effect against Lactobacillus (in words) (Example 1: 0.5% w/w Na-hexanoate in glucoamylase formulation, pH 5.0): antimicrobial (germicidal) effect
- CFU/ml After 1 week [4]: ≦100 CFU/ml
- CFU/ml After 2 weeks [4]: ≦100 CFU/ml
- CFU/ml After inoculation (Example 1: Talaromyces glucoamylase formulation, 0.5% w/w Na-hexanoate, pH 5.0, inoculated with 10^5-10^6 CFU/ml): 180000 CFU/ml
- CFU/ml Before inoculation (Example 1: Talaromyces glucoamylase formulation, 43% w/w solids (glucose), 0.5% w/w Na-hexanoate, pH 5.0, detection limit 100): ≦100 CFU/ml
- antimicrobial effect against Lactobacillus (in words) (Example 2: 0.5% w/w Na-hexanoate in xylanase and cellulase formulation, pH 4.6): antimicrobial (germicidal) effect
- antimicrobial effect against Lactobacillus (in words) (Example 3: 0.5% w/w Na-hexanoate in cellulase and xylanase formulation, pH 4.55): antimicrobial (germicidal) effect
